Data: patent publication US20080261310A1, “IN VITRO ROOTING OF HOODIA PLANTS” (CONOPCO, INC., D/B/A/ UNILEVER, priority 2007, published 2008)

Tested on: Hoodia explants
Test: In vitro rooting of Hoodia explants on rooting media (basal salts, phytohormones, charcoal)
Format: cell-based
Settings: experiment 11 medium with just IBA or just NAA alone
Description: The explants are placed onto rooting medium 1-2 cm deep in the medium in an erect position. The distance between the explants is the same as for the multiplication phase, although they may be placed closer (i.e. about 0.5-1 cm apart), as they are no longer producing new shoots. The rooted plans are kept in the rooting medium under conditions of darkness at temperature of 26±2° C., typically for about 2-3 weeks, and later are placed under light until roots develop before going into the greenhouse for hardening. In all the multiplication and later rooting trials, the experiments were carried out in a randomised factorial design with at least four replicates per treatment. The student's t-test was used to determine significant difference between the phytohormone treatments. P values ≦0.05 was considered significant. This example investigated various concentrations basal salt medium, vitamins (those in M&S medium, always included at full strength), and various phytohormones on rooting. Each experiment was replicated four times and statistical analysis has been carried out as described above.

SMILES	root formation when experiment 11 was repeated with a single auxin
O=C(O)CCCc1c[nH]c2ccccc12 [IBA, indole-3-butyric acid]	no roots could be obtained
O=C(O)Cc1cccc2ccccc12 [NAA, α-naphthalene acetic acid]	no roots could be obtained
